Data from US20130331417A1, “INSECTICIDAL MIXTURES WITH IMPROVED PROPERTIES” (BAYER INTELLECTUAL PROPERTY GMBH, priority 2010, published 2013).

How the values were obtained:
Myzus persicae = Myzus persicae test, oil seed rape seed treatment; format: in vivo; conditions: after 2 days
Procedure: (§1) The expected efficacy of a given combination of two compounds is calculated as follows (see Colby, S .R., “Calculating Synergistic and antagonistic Responses of Herbicide Combinations”, Weeds 15, pp. 20-22, 1967):
(§2) If the observed insecticidal efficacy of the combination is higher than the one calculated as “E”, then the combination of the two compounds is more than additive, i.e., there is a synergistic effect.
(§3) If not mentioned otherwise, the crystalline modification I of 4-{[(6-chloropyrid-3-yl)methyl](methyl)amino} furan-2(5H)-one has been prepared as a water-dispersible or water-soluble powder in an active ingredient concentration of 70% (wt/wt) involving the following formulation auxiliaries, whereas the amount of auxiliaries sums up to 100 wt. %:
(§4) The auxiliaries were mixed with the appropriate amount of the crystalline modification I of 4-{[(6-chloropyrid-3-yl)methyl](methyl)amino} furan-2(5H)-one. There is no water or solvent added. To enable the dry mixture to stick on the seed, the seed were treated with a minimal amount of water, namely 30 μl for 2 g canola seeds, and 800 μl für 20 g cotton seeds.
Seeds of Oil seed rape were treated with the compounds or mixtures and sown. Ca. […]
After the specified period of time, the mortality in % is determined 100% means that all the aphids have been killed; 0% means that none of the aphids have been killed.

Aphis gossypii = Aphis gossypii test, cotton seed treatment; format: in vivo
Procedure: as §1, §2, §3, §4
Cotton seeds were treated with the compounds or mixtures and sown. 10 days after germination the plants were infested with a mixed population of the cotton aphid (Aphis gossypii). After the specified period of time, the mortality in % is determined 100% means that all the aphids have been killed; 0% means that none of the aphids have been killed.

CN(Cc1ccc(Cl)nc1)C1=CC(=O)OC1 [4-{[(6-chloropyrid-3-yl)methyl](methyl)amino} furan-2(5H)-one]
Mortality (Myzus persicae; 0.025 mg ai/seed, infested ca. 35 days after germination): 40%
Mortality (Aphis gossypii; after 2 days (head above the row), 0.01 mg ai/seed): 60%
Mortality (Aphis gossypii; after 2 days, 0.025 mg ai/seed, infested 10 days after germination): 35%

CCOC(=O)OC1=C(c2cc(C)ccc2C)C(=O)N[C@]12CC[C@@H](OC)CC2 [Spirotetramat]
Mortality (Aphis gossypii; after 2 days, 5 mg ai/seed): 0%

C/C(=N\C#N)N(C)Cc1ccc(Cl)nc1 [Acetamiprid]
Mortality (Myzus persicae; 1 mg ai/seed): 0%

O=[N+]([O-])NC1=NCCN1Cc1ccc(Cl)nc1 [Imidacloprid]
Mortality (Aphis gossypii; after 3 days, 0.01 mg ai/seed): 0%
